Values of other authors, collected in patent publication US20200306252A1, “COMPOSITION FOR PREVENTING AND/OR TREATING DEMENTIA” (priority 2019, published 2020).

Columns and labels:
neural cells = conditions: cellular experiments
β-amyloid = conditions: cellular experiments
patients with dementia = conditions: clinical experiments; curcumin alone

Structure (SMILES): COc1cc(/C=C/C(=O)CC(=O)/C=C/c2ccc(O)c(OC)c2)ccc1O [curcumin]
- protecting neural cells (neural cells): effective
- reducing β-amyloid aggregation (β-amyloid): effective
- alleviation of the symptoms of patients with dementia (patients with dementia): cannot effectively alleviate the symptoms
- bioavailability: poor
